This test deals with T1, ELF3-MED23 protein-protein interaction (Homo sapiens, UniProt Q9ULK4).
T1 construct: followed by the addition of either the candidate compound or MED23 protein constructs; endogenous in cells; host or cells: 293T kidney cells (MED23 endogenous; GAL4-ELF3 transfected)
T1 sequence (Q9ULK4 1-1368): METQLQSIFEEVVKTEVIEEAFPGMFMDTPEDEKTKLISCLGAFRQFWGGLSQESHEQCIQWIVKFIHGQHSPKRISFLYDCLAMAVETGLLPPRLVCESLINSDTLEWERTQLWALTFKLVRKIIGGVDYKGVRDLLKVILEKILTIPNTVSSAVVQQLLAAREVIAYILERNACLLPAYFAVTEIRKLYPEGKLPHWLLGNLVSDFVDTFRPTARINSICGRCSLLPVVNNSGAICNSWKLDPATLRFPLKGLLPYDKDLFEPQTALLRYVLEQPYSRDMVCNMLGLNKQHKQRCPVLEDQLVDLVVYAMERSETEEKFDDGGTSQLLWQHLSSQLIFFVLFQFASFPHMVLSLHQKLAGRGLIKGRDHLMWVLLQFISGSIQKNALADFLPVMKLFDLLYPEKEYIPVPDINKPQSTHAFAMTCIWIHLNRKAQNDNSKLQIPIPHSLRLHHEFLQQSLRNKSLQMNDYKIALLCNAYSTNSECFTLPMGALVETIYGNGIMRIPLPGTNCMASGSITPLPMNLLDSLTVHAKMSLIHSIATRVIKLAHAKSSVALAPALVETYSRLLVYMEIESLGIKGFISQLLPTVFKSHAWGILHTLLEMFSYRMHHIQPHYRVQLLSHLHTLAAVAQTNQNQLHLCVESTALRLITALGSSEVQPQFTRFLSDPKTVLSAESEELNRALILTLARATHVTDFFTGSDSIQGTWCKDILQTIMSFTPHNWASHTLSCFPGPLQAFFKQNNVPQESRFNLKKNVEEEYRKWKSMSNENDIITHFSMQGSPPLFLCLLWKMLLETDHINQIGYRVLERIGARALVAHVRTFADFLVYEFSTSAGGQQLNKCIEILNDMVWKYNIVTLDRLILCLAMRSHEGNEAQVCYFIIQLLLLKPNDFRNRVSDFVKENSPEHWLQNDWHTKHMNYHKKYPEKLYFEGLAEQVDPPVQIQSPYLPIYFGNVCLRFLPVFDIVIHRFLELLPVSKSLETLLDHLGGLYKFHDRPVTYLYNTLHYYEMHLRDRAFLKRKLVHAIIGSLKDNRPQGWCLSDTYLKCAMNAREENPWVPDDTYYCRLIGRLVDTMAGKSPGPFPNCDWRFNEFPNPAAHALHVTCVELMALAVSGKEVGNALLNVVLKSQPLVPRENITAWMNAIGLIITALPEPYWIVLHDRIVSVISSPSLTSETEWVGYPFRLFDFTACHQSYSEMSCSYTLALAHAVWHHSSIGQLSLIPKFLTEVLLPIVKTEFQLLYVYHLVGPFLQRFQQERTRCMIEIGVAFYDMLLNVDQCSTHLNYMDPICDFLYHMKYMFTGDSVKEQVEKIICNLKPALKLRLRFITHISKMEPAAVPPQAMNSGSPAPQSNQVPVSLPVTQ
The experiment in a line: SEAP reporter assay, ELF3-MED23 PPI inhibition (293T kidney cells). The format is cell-based. For orientation: A reporter such as luciferase makes a cellular process visible.

Molecules are shown by their SMILES.

A word on the IC50: it is the point on the concentration scale where inhibition reaches its midpoint. Read a low IC50 as greater potency in that assay. Broadly, the inhibition is the change of the read-out against control, counted positive when it falls.

For the setting “ELF3-MED23 PPI”, `CC(=O)N1N=C(c2cccc(O)c2)CC1c1ccc(Cl)cc1` (centres unmarked) [Compound 15, 1-[5-(4-Chlorophenyl)-3-(3-hydroxyphenyl)-4,5-dihydropyrazol-1-yl]-ethanone] gave an IC50 of 1.18 ± 0.34 µM. The inhibition at 10 µM (HEK-293T, 10 μM) came out at 95%.

The values are drawn from patent publication US20260373119A1, “NOVEL COMPOUND, AND COMPOSITION FOR PREVENTING OR TREATING HER2-POSITIVE CANCER, COMPRISING SAME” (EWHA UNIVERSITY - INDUSTRY COLLABORATION FOUNDATION, priority 2022, published 2026).
